In US8431591B2, “R(−)-2-methoxy-11-hydroxyaporphine and derivatives thereof” (The McLean Hospital Corporation, priority 2007, dated 2013):
Read-outs that look alike come from different tables or passages of the source.

Columns and labels:
[1] = following a single dose; cited from earlier work
D2 receptor = conditions: Gao et al., J. Med. Chem. 33:1800 (1990); cited from earlier work
dopamine D2 receptor = dopamine D2 receptor (Rattus norvegicus, UniProt P61169); experiment: Radioligand competition assay, affinity at rat D2 receptors ([3H]nemonapride); format: binding
dopamine D1 receptor = dopamine D1 receptor (Rattus norvegicus, UniProt P18901); experiment: Radioligand competition assay, affinity at rat D1 receptors ([3H]SCH23390); format: binding; conditions: radioligand [3H]SCH23390
Chain of dopamine D1 receptor (P18901 whole entry): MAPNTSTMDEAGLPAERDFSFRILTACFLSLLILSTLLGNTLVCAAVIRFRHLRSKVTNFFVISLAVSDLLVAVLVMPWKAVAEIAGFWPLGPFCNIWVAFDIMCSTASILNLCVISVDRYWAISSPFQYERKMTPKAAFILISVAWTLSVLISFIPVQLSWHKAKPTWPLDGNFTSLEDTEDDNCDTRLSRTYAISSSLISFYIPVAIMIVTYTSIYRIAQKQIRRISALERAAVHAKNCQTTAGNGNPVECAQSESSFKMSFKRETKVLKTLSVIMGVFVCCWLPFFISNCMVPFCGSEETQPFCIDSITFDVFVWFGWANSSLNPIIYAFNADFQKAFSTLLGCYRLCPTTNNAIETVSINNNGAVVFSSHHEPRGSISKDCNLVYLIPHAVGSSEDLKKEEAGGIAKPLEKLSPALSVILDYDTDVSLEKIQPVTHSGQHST

Chain of dopamine D2 receptor (P61169 whole entry): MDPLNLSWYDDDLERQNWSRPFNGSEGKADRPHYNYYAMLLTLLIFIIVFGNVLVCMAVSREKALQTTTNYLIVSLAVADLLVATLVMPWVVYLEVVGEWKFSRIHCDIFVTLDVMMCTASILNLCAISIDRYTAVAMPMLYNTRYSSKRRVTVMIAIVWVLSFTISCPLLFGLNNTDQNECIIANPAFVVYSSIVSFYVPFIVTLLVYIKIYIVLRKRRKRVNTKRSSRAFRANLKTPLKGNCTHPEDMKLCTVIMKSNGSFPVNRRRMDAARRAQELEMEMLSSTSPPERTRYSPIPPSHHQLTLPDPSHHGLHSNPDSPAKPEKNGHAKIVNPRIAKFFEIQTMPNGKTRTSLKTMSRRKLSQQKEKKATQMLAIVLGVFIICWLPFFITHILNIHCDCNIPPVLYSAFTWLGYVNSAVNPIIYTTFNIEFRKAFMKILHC

SMILES	D2 receptor affinity and selectivity (in words) (D2 receptor)	Ki (dopamine D1 receptor) [nM]	further results
CN1CCc2cccc3c2[C@H]1Cc1ccc(O)c(O)c1-3 [apomorphine, R(−)-Apomorphine]			duration of effects [1]: 40 to 60 min; onset of action [1]: 5 to 15 min
CCCN1CCc2cccc3c2[C@H]1Cc1cccc(O)c1-3 [Compound 2, R(−)-11-hydroxy-N-n-propylnoraporphine]	even higher affinity and selectivity for D2 receptor than apomorphine		
CCCN1CCc2cc(O)cc3c2[C@H]1Cc1ccc(O)c(O)c1-3 [R(−)-2-OH-NPA, R(−)-2-hydroxy-N-n-propylnorapomorphine]	among the most potent and highly selective agonists for the D2 receptor		
COc1cc2c3c(c1)-c1c(O)cccc1CC3N(C)CC2 (stereo not drawn) [Compound 3, 2-Methoxy-11-hydroxyaporphine]		46 ± 2.8	Ki (dopamine D2 receptor; rat receptors, radioligand [3H]nemonapride, read-out: Affinity at rat receptors, D2): 235 ± 32 nM
CCCN1CCc2cc(OC)cc3c2[C@H]1Cc1ccc(O)c(O)c1-3 [Compound 1c, R(−)-2-methoxy-N-n-propylnorapomorphine]	among the most potent and highly selective agonists for the D2 receptor		
COc1cc2c3c(c1)-c1c(ccc(O)c1O)C[C@H]3N(C)CC2 [Compound 8]		6450	Ki (dopamine D2 receptor): 1.3 ± 0.4 nM
